Test [1] has as its target T1, CDK1 (Homo sapiens, UniProt P06493).
T1 construct: purchased Carna Biosciences, Inc
Kind of test: CDK1 kinase activity inhibition (ADP-Glo). In kind it is biochemical. Conditions: 50 μM ATP, 2 h at room temperature. How it is done:
(§1) CDK9 kinase was manufactured by the company or commercially available. CDK1, CDK2 and CDK7 were purchased from Carna Biosciences, Inc. ADP-Glo™ kit was purchased from Promega Corporation. Dithiothreitol (DTT), Tween-20, dimethylsulfoxide (DMSO), bovine serum albumin (BSA) and Tris base were obtained from Sigma at the available highest level of purity.
(§2) General procedures for CDK inhibition determination: The determination was performed in a buffer consisting of 50 μM DTT, 0.1% BSA, 40 mM Tris-HCl pH=7.5 and 20 mM MgCl2. The compound dissolved in DMSO and CDK enzymes were diluted with the buffer. 1 μL of the compound solution in 5% DMSO and 2 μL of the CDK enzyme solution were added to a white low-volume 384-well microtiter plate and incubated for 20 min at room temperature. Ultra pure ATP and the substrate polypeptide (purchased from GenScript Biotech Corporation) were diluted together into the buffer and added to a mixed solution of the compound and the enzyme, 2 μL per well. They were incubated for 2 h at room temperature.
(§3) After the reaction was completed, 5 μL of ADP-Glo™ reagent was added to each well and incubated for 40 min at room temperature, and then 10 μL of test reagent was added to each well and incubated for 30 mi at room temperature. Chemical luminescence values were measured by using a Tecan (Männedorf, Switzerland) multifunctional plate reader Spark for plate reading. The IC50 value of the inhibitor was obtained by fitting the chemical luminescence intensity ratio in the S-shaped dosage reaction curve using Prism 7 (La Jolla, 15 CA) relative to the concentration of the inhibitor.
In general terms: ADP-Glo turns the ADP formed in a reaction into a luminescent signal.

The target of test [2] is T2, CDK2 (Homo sapiens, UniProt P24941).
T2 construct: purchased Carna Biosciences, Inc
Briefly: CDK2 kinase activity inhibition (ADP-Glo). In kind it is biochemical. Particulars: 10 μM ATP, 2 h at room temperature. As for the experimental part: as §1, §2, §3

Test [3] addresses T3, CDK7 (Homo sapiens, UniProt P50613).
T3 construct: purchased Carna Biosciences, Inc
Briefly: CDK7 kinase activity inhibition (ADP-Glo). The class given is biochemical. Particulars: 10 μM ATP, 2 h at room temperature. How it is done: as §1, §2, §3

Test [4] relates to MOLM-13 cells. Briefly: Tumor cell proliferation inhibition experiment (CellTiter-Glo). In kind it is cell-based. Conditions: Homo sapiens, read-out: MOLM-13 (nM) IC50, cell proliferation inhibition. The source says: An acute myeloid leukemia (AML) cell line (MOLM-13) was purchased from NANJING COBIOER BIOSCIENCES CO., LTD. An RPMI1640 medium and a penicillin-streptomycin double-antibody were purchased from ThermoFisher (Waltham, MA, USA). Certified fetal bovine serum (FBS) was purchased from Biological Industries (Israel). A Corning 384-well cell culture plate was purchased from CORNING (USA). Cell-Titer Glo® was purchased from Promega Corporation (Madison, WI, USA).
To evaluate the ability of the synthetic compound to inhibit the proliferation of MOLM-13 cells, MOLM-13 cells at an exponential growth stage were inoculated at a density of 500,000 cell/mL in the RPMI1640 medium containing 20% bovine serum and 1% penicillin-streptomycin double-antibody, and the 384-well plate contained 20 μL per well and placed overnight in an 37° C., 5% CO2 incubator. Compound powder was dissolved in DMSO to prepare a storage mother liquor with a concentration of 2 mM, and 12 dilutions with three-fold gradient concentrations were further prepared. 1 μL of gradient-diluted DMSO solution was added to 99 μL of cell culture medium (the final maximum concentration of the compound in the assay was 10 uM and the final concentration of DMSO was 0.5%). 20 μL of compound solution in the medium was added at gradients to each cell-coated test well of the 384-well plate. After the compound solution was added, the 384-well plate was incubated for 16 h in a 37° C., 5% CO2 incubator. Cell viability was determined by quantifying ATPs present in test wells using the CellTiter-Glo kit from Promega (Madison, WI, USA). After 20 minutes of incubation, readings were obtained under a chemical luminescence procedure using Tecan's Spark multifunctional plate reader. The concentration (IC50 value) of the compound at which the cell survival rate was inhibited by 50% was determined using an S-shaped dosage response model (variable slope, four parameters) in Prism 7 (LaJolla, CA).
On the technique in general: Cellular ATP, detected with luciferase, serves as a proxy for viable cell number.

Test [5] concerns the target CDK9 (Homo sapiens, UniProt P50750). Kind of test: CDK9 kinase activity inhibition (ADP-Glo). In kind it is biochemical. Particulars: 10 μM ATP, 2 h at room temperature. How it is done:
as §1, §2, §3

[6] abbreviates: acute myeloid leukemia cell line MOLM-13, 16 h incubation, CellTiter-Glo.

Read-outs that look alike come from different tables or passages of the source.

T1 sequence (P06493 whole entry): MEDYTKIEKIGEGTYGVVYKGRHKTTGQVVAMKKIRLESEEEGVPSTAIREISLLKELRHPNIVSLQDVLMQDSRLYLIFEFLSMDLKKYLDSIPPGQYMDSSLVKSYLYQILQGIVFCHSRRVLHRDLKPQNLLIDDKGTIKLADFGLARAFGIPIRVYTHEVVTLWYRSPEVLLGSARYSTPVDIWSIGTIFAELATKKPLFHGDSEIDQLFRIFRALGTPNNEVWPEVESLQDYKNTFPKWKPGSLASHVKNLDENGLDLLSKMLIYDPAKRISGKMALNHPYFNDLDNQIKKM
T1 sequence (P14635 whole entry partner): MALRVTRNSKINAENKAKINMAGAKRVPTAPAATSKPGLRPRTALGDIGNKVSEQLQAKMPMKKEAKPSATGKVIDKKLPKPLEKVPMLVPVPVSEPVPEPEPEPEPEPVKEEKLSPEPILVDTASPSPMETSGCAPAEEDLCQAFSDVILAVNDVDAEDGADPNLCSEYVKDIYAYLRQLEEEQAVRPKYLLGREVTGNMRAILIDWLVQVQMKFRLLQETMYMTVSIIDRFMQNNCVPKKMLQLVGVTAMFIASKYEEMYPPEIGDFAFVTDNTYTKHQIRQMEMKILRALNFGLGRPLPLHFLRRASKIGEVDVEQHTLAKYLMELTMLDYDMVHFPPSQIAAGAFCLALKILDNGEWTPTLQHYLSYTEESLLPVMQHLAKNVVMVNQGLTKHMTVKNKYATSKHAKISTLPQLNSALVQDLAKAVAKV
T3 sequence (P50613 whole entry): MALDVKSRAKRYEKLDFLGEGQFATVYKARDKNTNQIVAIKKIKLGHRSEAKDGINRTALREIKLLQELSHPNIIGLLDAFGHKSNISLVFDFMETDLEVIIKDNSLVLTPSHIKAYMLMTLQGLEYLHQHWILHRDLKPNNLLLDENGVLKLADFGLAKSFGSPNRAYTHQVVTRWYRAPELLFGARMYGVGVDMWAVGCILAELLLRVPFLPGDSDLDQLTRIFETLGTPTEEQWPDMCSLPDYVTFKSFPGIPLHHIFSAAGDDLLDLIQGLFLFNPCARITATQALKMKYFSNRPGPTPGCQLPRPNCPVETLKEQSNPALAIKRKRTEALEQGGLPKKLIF
T3 sequence (P51946 whole entry partner): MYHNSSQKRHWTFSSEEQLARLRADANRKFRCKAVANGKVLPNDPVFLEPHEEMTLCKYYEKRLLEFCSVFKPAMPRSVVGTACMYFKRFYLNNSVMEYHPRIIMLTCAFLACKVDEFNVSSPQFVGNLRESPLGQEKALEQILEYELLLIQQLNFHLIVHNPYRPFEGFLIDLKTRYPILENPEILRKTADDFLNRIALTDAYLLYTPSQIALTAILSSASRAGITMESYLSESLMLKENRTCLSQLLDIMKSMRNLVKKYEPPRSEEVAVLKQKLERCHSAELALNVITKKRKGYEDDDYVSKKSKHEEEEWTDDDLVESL
T3 sequence (P51948 whole entry partner): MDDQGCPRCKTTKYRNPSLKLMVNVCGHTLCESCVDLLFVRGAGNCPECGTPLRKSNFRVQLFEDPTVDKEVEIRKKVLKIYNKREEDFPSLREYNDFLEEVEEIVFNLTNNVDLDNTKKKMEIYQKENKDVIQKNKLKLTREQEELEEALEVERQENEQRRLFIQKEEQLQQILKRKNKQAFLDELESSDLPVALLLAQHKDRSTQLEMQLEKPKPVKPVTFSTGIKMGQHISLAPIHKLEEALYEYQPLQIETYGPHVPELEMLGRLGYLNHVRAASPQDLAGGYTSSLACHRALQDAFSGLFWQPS
CDK9, sequence (P50750 whole entry): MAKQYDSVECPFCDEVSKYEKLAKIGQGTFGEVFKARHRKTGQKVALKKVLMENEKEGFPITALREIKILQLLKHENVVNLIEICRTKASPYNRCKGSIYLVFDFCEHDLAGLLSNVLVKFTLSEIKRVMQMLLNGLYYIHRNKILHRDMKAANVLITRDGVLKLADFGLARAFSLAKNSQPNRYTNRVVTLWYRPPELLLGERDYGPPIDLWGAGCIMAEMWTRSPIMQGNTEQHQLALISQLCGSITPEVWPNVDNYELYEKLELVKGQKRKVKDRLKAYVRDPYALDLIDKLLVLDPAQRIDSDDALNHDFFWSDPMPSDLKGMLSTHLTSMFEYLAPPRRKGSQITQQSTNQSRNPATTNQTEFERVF
CDK9, sequence (O60563 whole entry partner): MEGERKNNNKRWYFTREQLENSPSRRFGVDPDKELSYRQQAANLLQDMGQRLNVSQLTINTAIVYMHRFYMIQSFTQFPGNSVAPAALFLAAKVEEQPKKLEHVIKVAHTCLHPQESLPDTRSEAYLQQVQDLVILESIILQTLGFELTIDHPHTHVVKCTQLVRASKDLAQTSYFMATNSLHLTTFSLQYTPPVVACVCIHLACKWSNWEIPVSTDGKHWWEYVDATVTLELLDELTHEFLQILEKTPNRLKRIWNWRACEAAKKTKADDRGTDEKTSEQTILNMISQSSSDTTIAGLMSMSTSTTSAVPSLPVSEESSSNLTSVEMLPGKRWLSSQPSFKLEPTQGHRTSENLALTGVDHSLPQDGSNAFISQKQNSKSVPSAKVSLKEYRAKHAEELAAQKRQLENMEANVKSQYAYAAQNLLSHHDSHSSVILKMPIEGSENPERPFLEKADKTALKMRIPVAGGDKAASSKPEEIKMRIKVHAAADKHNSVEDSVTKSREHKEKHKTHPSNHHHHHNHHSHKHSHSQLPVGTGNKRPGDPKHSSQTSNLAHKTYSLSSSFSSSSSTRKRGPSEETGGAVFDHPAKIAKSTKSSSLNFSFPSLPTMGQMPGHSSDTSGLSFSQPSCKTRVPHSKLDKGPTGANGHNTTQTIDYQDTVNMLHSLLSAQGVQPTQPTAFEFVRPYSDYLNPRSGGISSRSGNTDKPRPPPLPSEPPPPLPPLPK

`CC(=O)N[C@@H]1CCC[C@H](C(=O)Nc2cc(-c3cnn4c3CC(C)(C)C4)c(Cl)cn2)C1` [AZD4573, reference compound]: the IC50 came out at 8.3 nM in test [1], 18.6 nM in test [2], 31.4 nM in test [3] and 17.1 nM in test [4] (setting [6]).
The matching figures for `COc1cc(F)ccc1-c1cc(Nc2cc(CS(C)(=N)=O)ccn2)ncc1F` (centres unmarked) [BAY1251152, reference compound]: 570 nM, 811 nM, 4290 nM and 118 nM.
On to `CC(=O)NC[C@H]1CCC(F)(F)CN1C(=O)c1nc(Nc2cc(C#N)ccn2)ccc1C` [Compound 1, (R)—N-((1-(6-((4-cyanopyridin-2-yl)amino)-3-methylpyridine-2-carbonyl)-5,5-difluoropiperidin-2-yl)methyl)acetamide], for which the IC50 turned out to be 4.9 nM in test [5], 36.7 nM in test [2], 1950 nM in test [3] and 24.8 nM in test [4] (setting [6]).
Turning to `CC(=O)NC[C@H]1CCC(F)(F)CN1C(=O)c1nc(Nc2cc(OC(F)(F)F)ccn2)ccc1C` [Compound 5, (R)—N-((5,5-difluoro-1-(3-methyl-6-((4-(trifluoromethoxy)pyridin-2-yl)amino)pyridine-2-carbonyl)piperidin-2-yl)methyl)acetamide], the IC50 in test [1] came out at 350 nM; in test [5], 5.8 nM; in test [2], 217 nM; in test [3] it was 2600 nM; in test [4] (setting [6]), 27.9 nM.
In the case of `CC(=O)NC[C@H]1CCC(F)(F)CN1C(=O)c1nc(Nc2cc(OC(F)F)ccn2)ccc1C` [Compound 11, (R)—N-((1-(6-((4-(difluoromethoxy)pyridin-2-yl)amino)-3-methylpyridine-2-carbonyl)-5,5-difluoropiperidin-2-yl)methyl)acetamide], the IC50 in test [1] came to 755 nM; in test [5] it was 5.1 nM; in test [2] it was 368 nM; in test [3], 4350 nM; in test [4] (setting [6]), 45.3 nM.
Regarding `CC(=O)NC[C@H]1CCC(F)(F)CN1C(=O)c1nc(Nc2cc([N+](=O)[O-])ccn2)ccc1C` [Compound 19, (R)—N-((5,5-difluoro-1-(3-methyl-6-((4-nitropyridin-2-yl)amino)pyridine-2-carbonyl)piperidin-2-yl)methyl)acetamide], the IC50 in test [1] amounted to 106 nM; in test [5], 9 nM; in test [2], 48.7 nM; in test [3], 7780 nM; in test [4] (setting [6]), 24.2 nM.
In the same order, the values of `CC(=O)NC[C@H]1CCC(F)(F)CN1C(=O)c1nc(Nc2cc(Cl)ccn2)ccc1C` [Compound 24, (R)—N-((1-(6-((4-chloropyridin-2-yl)amino)-3-methylpyridine-2-carbonyl)-5,5-difluoropiperidin-2-yl)methyl)acetamide] are above 10000 nM, 7.1 nM, 408 nM, 8760 nM and 70.9 nM.
Consider `CC(=O)NC[C@H]1CCC(F)(F)CN1C(=O)c1nc(Nc2cc(C(F)F)ccn2)ccc1C` [Compound 27, (R)—N-((1-(6-((4-(difluoromethyl)pyridin-2-yl)amino)-3-methylpyridine-2-carbonyl)-5,5-difluoropiperidin-2-yl)methyl)acetamide], for which the IC50 stood at 426 nM in test [1]; 5.8 nM in test [5]; 144 nM in test [2]; 4570 nM in test [3]; 22.1 nM in test [4] (setting [6]).
As for `CC(=O)NC[C@H]1CCC(F)(F)CN1C(=O)c1nc(Nc2cc(CF)ccn2)ccc1C` [Compound 28, (R)—N-((5,5-difluoro-1-(6-((4-(fluoromethyl)pyridin-2-yl)amino)-3-methylpyridine-2-carbonyl)piperidin-2-yl)methyl)acetamide], the IC50 in test [5] is 9.4 nM; in test [2] it was 1260 nM; in test [4] (setting [6]) it was 133 nM.
In the same order, the values of `Cc1ccc(Nc2cc(OC(F)(F)F)ccn2)nc1C(=O)N1CC(F)(F)CCC1C(=O)N1CCCC1` (centres unmarked) [Compound 47, (5,5-Difluoro-1-(3-methyl-6-((4-(trifluoromethoxy)pyridin-2-yl)amino)pyridine-2-carbonyl)piperidin-2-yl)(pyrrolidin-1-yl)methanone] are 119 nM, 844 nM and 938 nM.
The matching figures for `Cc1ccc(Nc2cc(OC(F)(F)F)ccn2)nc1C(=O)N1CC(F)(F)CC[C@@H]1CN1CCCC1=O` [Compound 48, (R)-1-((5,5-difluoro-1-(3-methyl-6-((4-(trifluoromethoxy)pyridin-2-yl)amino)pyridine-2-carbonyl)piperidin-2-yl)methyl)pyrrolidinone-2-one]: 16.4 nM, 2870 nM and 683 nM.
In the same order, the values of `Cc1ccc(Nc2cc(OC(F)(F)F)ccn2)nc1C(=O)N1CC(F)(F)CC[C@@H]1CNC(=O)C1CC1` [Compound 51, (R)—N-((5,5-difluoro-1-(3-methyl-6-((4-(trifluoromethoxy)pyridin-2-yl)amino)pyridine-2-carbonyl)piperidin-2-yl)methyl)cyclopropanecarboxamide] are 7.7 nM, 1270 nM and 112 nM.
With `COC(=O)c1ccnc(Nc2ccc(C)c(C(=O)N3CC(F)(F)CC[C@@H]3CNC(C)=O)n2)c1` [Compound 56, (R)-2-((6-(2-(acetamidomethyl)-5,5-difluoropiperidine-1-carbonyl)-5-methylpyridin-2-yl)amino)methyl isonicotinate], the IC50 in test [1] came out at 3750 nM; in test [5], 7.7 nM; in test [2] it was 924 nM; in test [4] (MOLM-13, 16 h), 180 nM.
Turning to `CC(=O)N[C@@H]1C[C@H](Nc2nc(Nc3cc(OC(F)(F)F)ccn3)ccc2C)CC(F)(F)C1` [Compound 60, N-((1R,5S)-3,3-difluoro-5-((3-methyl-6-((4-(trifluoromethoxy)pyridin-2-yl)amino)pyridin-2-yl)amino)cyclohexyl)acetamide], the IC50 stood at 70.5 nM in test [5], 797 nM in test [2] and 894 nM in test [4] (setting [6]).
Regarding `CC(=O)NC[C@H]1CCC(F)(F)CN1C(=O)c1nc(Nc2cc(OC(F)(F)F)ccn2)ccc1F` [Compound 64, (R)—N-((5,5-difluoro-1-(3-fluoro-6-((4-(trifluoromethoxy)pyridin-2-yl)amino)pyridine-2-carbonyl)piperidin-2-yl)methyl)acetamide], the figures for the IC50 in test [5], in test [2] and in test [4] (setting [6]) were 6.3 nM, 120 nM and 120 nM, respectively.
With `CC(=O)NC[C@H]1CCC(F)(F)CN1C(=O)c1cccc(Nc2cc(OC(F)(F)F)ccn2)n1` [Compound 80, (R)—N-((5,5-difluoro-1-(6-((4-(trifluoromethoxy)pyridin-2-yl)amino)pyridine-2-carbonyl)piperidin-2-yl)methyl)acetamide], the IC50 in test [5] was determined as 7.2 nM; in test [2], 258 nM; in test [4] (setting [6]) it was 198 nM.
On to `CC(=O)NC[C@H]1CCC(F)(F)CN1C(=O)c1nc(Nc2cc(OC(F)(F)F)ccn2)ccc1Cl` [Compound 84, (R)—N-((1-(3-chloro-6-((4-(trifluoromethoxy)pyridin-2-yl)amino)pyridine-2-carbonyl)-5,5-difluoropiperidin-2-yl)methyl)acetamide], for which the IC50 came out at 6.2 nM in test [5]; 577 nM in test [2]; 58.6 nM in test [4] (MOLM-13, 16 h).

The values are drawn from patent US12729192B2, “CDK9 inhibitor and use thereof” (PHARMABLOCK SCIENCES (NANJING), INC., priority 2020, dated 2026).
